US20220324835A1 (Nurix Therapeutics, Inc., priority 2018, published 2022)
Read-outs that look alike come from different tables or passages of the source.

Assays:
Cbl-b [1] = target: T1, Cbl-b (Homo sapiens, UniProt Q13191); test: Cbl-b activity assay (Cbl-b inhibition assay), TR-FRET of Cbl-b interaction with UbcH5B-Ub; format: biochemical; conditions: assay buffer with 100 mM NaCl, 60 nM Src kinase; read-out: Cbl-b activity IC50
How it was run: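 TR-FRET readout of Cbl-b binding to Bodipy-fluorescein N-terminally labeled Ub conjugated to UbcH5B C85K, measured with compound present. After compound incubation, 60 nM Src kinase with 1 mM ATP and 5 mM MgCl2 (final) was added for 1.5 h, then a further 1 h incubation; asterisked values used 50 mM NaCl buffer and 30 nM Src.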

Cbl-b (residues 36-427) = Cbl-b (residues 36-427) (Homo sapiens, UniProt Q13191); test: Cbl-b binding assay (SPR, Biacore T200); conditions: 20° C., 1:1 binding model
How it was run: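 Affinities derived from global 1:1 steady-state or kinetic fits of double-referenced, solvent-corrected SPR data, 20 °C, NeutrAvidin-capture chip. Compound series (top 100 or 50 μM, 8–10 points) injected 50 s, 90–180 s dissociation. Asterisked values used 50 mM instead of 100 mM NaCl and 30 nM Src kinase.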

Cbl-b [2] = target: T1, Cbl-b; test: Cbl-b inhibition assay (Cbl-b activity assay, FRET, Biological Example 1; 100 mM NaCl, 60 nM Src kinase); format: biochemical; conditions: upper bound stated in text lists; read-out: IC50 values in the Cbl-b inhibition assay of Biological Example 1
How it was run: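 Binding-based Cbl-b activity assay. Src-phosphorylated, N-terminally biotin-Avi-tagged Cbl-b recruits labelled UbcH5B-Ub, and proximity to streptavidin-terbium yields FRET.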

T-cell = test: IL-2 secretion from T-cells stimulated with anti-CD3 antibody alone (Biological Example 2); format: cell-based, human; conditions: T-cell, read-out: IL-2 secretion Anti-CD3 stimulation; for fold induction at 1 µM: 1 μM Cbl-b inhibitor; for fold induction at 8 µM: 8 μM Cbl-b inhibitor
[3] = fold change over baseline, primary human total T-cells

T1 sequence (Q13191 36-427): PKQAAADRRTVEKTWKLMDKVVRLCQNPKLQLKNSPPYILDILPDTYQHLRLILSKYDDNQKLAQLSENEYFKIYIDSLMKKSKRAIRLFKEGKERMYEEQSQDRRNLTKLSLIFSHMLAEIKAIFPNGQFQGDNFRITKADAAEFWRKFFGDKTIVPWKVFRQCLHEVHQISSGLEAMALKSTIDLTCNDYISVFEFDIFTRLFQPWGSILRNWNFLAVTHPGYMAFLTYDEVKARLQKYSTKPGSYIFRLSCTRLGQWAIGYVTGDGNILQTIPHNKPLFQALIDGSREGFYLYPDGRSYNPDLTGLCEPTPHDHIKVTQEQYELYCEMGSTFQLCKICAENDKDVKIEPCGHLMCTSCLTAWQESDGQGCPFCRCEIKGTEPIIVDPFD
Cbl-b (residues 36-427), sequence (Q13191 36-427): as above

SMILES	IC50 (Cbl-b [1]) [µM]	Kd (Cbl-b (residues 36-427)) [µM]	IC50 (Cbl-b [2]) [µM]	fold induction at 1 µM (T-cell; [3])	fold induction at 8 µM (T-cell; [3])	fold induction at 1 µM (T-cell; Homo sapiens, fold change over baseline (anti-CD3/anti-CD28 stimulated T-cells without inhibitor))
C[C@H](Cc1nncn1C)c1cccc(N2Cc3c(ccnc3C3CCC3)C2=O)c1 [Compound 258, (R)-4-cyclobutyl-2-(3-(1-(4-methyl-4H-1,2,4-triazol-3-yl)propan-2-yl)phenyl)-2,3-dihydropyrrolo[3,4-c]pyridin-1-one]	0.1 to 0.3	3 to 10	≤ 0.5	0.051 to 0.1	0.101 to 0.15	–
C[C@H](Cc1nnc[nH]1)c1cccc(N2Cc3c(cccc3C(F)(F)F)C2=O)c1 [Compound 262, (R)-2-(3-(1-(4H-1,2,4-triazol-3-yl)propan-2-yl)phenyl)-4-(trifluoromethyl)isoindolin-1-one]	0.301 to 1	0.301 to 1	≤ 0.5	< 0.05	< 0.05	–
C[C@H](Cc1nncn1C1CC1)c1cccc(N2Cc3c(cccc3C(F)(F)F)C2=O)c1 [Compound 265, (R)-2-(3-(1-(4-cyclopropyl-4H-1,2,4-triazol-3-yl)propan-2-yl)phenyl)-4-(trifluoromethyl)isoindolin-1-one]	0.301 to 1	3 to 10	≤ 1	< 0.05	< 0.05	–
Cc1[nH]cnc1CC(C)c1cccc(N2Cc3c(cccc3C(F)(F)F)C2=O)c1 (stereo not shown) [Compound 272, 2-[3-[1-(5-methyl-1H-imidazol-4-yl)propan-2-yl]phenyl]-4-(trifluoromethyl)isoindolin-1-one]	0.301 to 1	3 to 10	≤ 0.5	0.101 to 0.15	0.101 to 0.15	–
C[C@H](Cc1nncn1C)c1cc(F)cc(N2Cc3c(cccc3C(F)(F)F)C2=O)c1 [Compound 281a, 2-[3-Fluoro-5-[(1R)-1-methyl-2-(4-methyl-1,2,4-triazol-3-yl)ethyl]phenyl]-4-(trifluoromethyl)isoindolin-1-one]	0.1 to 0.3	0.1 to 0.3	≤ 0.5	< 0.05	0.051 to 0.1	–
Cn1cnnc1[C@@H]1C[C@@H]1c1cccc(N2Cc3c(cccc3C(F)(F)F)C2=O)c1 [Compound 282, 2-(3-((1S,2R)-2-(4-methyl-4H-1,2,4-triazol-3-yl)cyclopropyl)phenyl)-4-(trifluoromethyl)isoindolin-1-one]	0.301 to 1	0.301 to 1	≤ 0.5	< 0.05	< 0.05	–
Cn1cnnc1[C@@H]1CC[C@@H]1c1cccc(N2Cc3c(cccc3C(F)(F)F)C2=O)c1 [Compound 283b, 2-(3-((1S,2R)-2-(4-methyl-4H-1,2,4-triazol-3-yl)cyclobutyl)phenyl)-4-(trifluoromethyl)isoindolin-1-one]	0.301 to 1	0.301 to 1	≤ 0.5	0.101 to 0.15	> 0.201	–
Cc1ccc(C(=O)Nc2cccc(C(C)C(F)(F)c3nncn3C)c2)nc1C1CC1 (stereo not shown) [Compound 286, 6-cyclopropyl-N-(3-(1,1-difluoro-1-(4-methyl-4H-1,2,4-triazol-3-yl)propan-2-yl)phenyl)-5-methylpicolinamide]	0.1 to 0.3	0.301 to 1	≤ 0.5	0.051 to 0.1	0.101 to 0.15	–
Cn1cnnc1C[C@](C)(F)c1cccc(N2Cc3c(cccc3C(F)(F)F)C2=O)c1 [Compound 298b, (S)-2-(3-(2-fluoro-1-(4-methyl-4H-1,2,4-triazol-3-yl)propan-2-yl)phenyl)-4-(trifluoromethyl)isoindolin-1-one]	0.1 to 0.3	0.1 to 0.3	≤ 0.5	0.051 to 0.1	0.101 to 0.15	–
C[C@H](Cc1nncn1C)c1ccnc(NC(=O)c2cccc(C(F)(F)F)n2)c1 [Compound 302, (R)-N-(4-(1-(4-methyl-4H-1,2,4-triazol-3-yl)propan-2-yl)pyridin-2-yl)-6-(trifluoromethyl)picolinamide]	0.301 to 1	1 to 3	≤ 1	< 0.05	0.051 to 0.1	–
C[C@H](Cc1nncn1C)c1ccnc(N2Cc3c(cccc3C(F)(F)F)C2=O)c1 [Compound 304b, (R)-2-(4-(1-(4-methyl-4H-1,2,4-triazol-3-yl)propan-2-yl)pyridin-2-yl)-4-(trifluoromethyl)isoindolin-1-one]	0.301 to 1	1 to 3	≤ 0.5	< 0.05	< 0.05	–
C[C@H](Cc1nncn1C)c1cccc(NC(=O)c2nc(C(F)(F)F)c[nH]2)c1 [Compound 326, (R)-N-(3-(1-(4-methyl-4H-1,2,4-triazol-3-yl)propan-2-yl)phenyl)-4-(trifluoromethyl)-1H-imidazole-2-carboxamide]	0.1 to 0.3	0.1 to 0.3	≤ 0.3	0.051 to 0.1	> 0.201	–
Cn1cnnc1[C@@H]1C[C@@H]1c1cccc(NC(=O)c2nc3c(C(F)(F)F)cccc3[nH]2)c1 [Compound 332, N-(3-((1S,2R)-2-(4-methyl-4H-1,2,4-triazol-3-yl)cyclopropyl)phenyl)-4-(trifluoromethyl)-1H-benzo[d]imidazole-2-carboxamide]	0.1 to 0.3	0.301 to 1	≤ 0.3	0.101 to 0.15	> 0.201	–
Cc1cc(C(=O)Nc2cccc([C@@](C)(F)C(F)(F)c3nncn3C)c2)nc(C2CC2)n1 [Compound 344, (R)-2-Cyclopropyl-6-methyl-N-(3-(1,1,2-trifluoro-1-(4-methyl-4H-1,2,4-triazol-3-yl)propan-2-yl)phenyl)pyrimidine-4-carboxamide]	0.1 to 0.3	< 0.1	≤ 0.3	0.101 to 0.15	> 0.201	–
C[C@H](Cc1nncn1C)c1cc(NCCO)nc(N2Cc3c(cccc3C(F)(F)F)C2=O)c1 [Compound 357, (R)-2-(6-(2-hydroxyethylamino)-4-(1-(4-methyl-4H-1,2,4-triazol-3-yl)propan-2-yl)pyridin-2-yl)-4-(trifluoromethyl)isoindolin-1-one]	0.1 to 0.3	0.1 to 0.3	≤ 0.3	0.051 to 0.1	0.151 to 0.2	–
C[C@H](Cc1nncn1C)c1cc(-c2cn[nH]c2)nc(N2Cc3c(cccc3C(F)(F)F)C2=O)c1 [Example 684, (R)-2-(4-(1-(4-methyl-4H-1,2,4-triazol-3-yl)propan-2-yl)-6-(1H-pyrazol-4-yl)pyridin-2-yl)-4-(trifluoromethyl)isoindolin-1-one]	0.301 to 1	1 to 3	≤ 1	–	–	0.051 to 0.1
